{
  "source": "patent US11844808B2",
  "about": "“Methods and compositions for treating pre-eclampsia” (Women & Infants Hospital of Rhode Island, priority 2018, dated 2023)",
  "key": {"[1]": {"system": "placenta of pre-eclamptic mice", "test": "Placentas of pre-eclamptic mice: ProteoStat signal and cathepsin D expression", "format": "in vivo, mouse", "details": "all dose regimens", "method": "(§1) FIGS. 16 and 17. Based on the results in the cellular model of PE, the effect of Trehalose treatment in an animal model of PE was evaluated next in an established mouse model of PE by a single administration of severe PE serum in pregnant IL10^−/− mice at gd10^22. Using this model, mice were injected intraperitoneally with vehicle, Trehalose (2 g/kg), maltose, or D-glucose (2 g/kg) at gestational day (gd) 9 (a single dose before serum injection), at gd11 and gd14 (two doses after serum injection), or at gd9, gd11 and gd14 (one dose before and two doses after serum injection) (FIG. 16). At gd17, urine was collected, blood pressure was measured, and fetal weight was recorded (FIG. 17A-D). Kidney was fixed and processed for H&E staining for glomerular endotheliosis (FIG. 17E). As reported previously, administration of severe PE sera, not normal pregnancy sera, at gd10 recapitulated a full spectrum of PE-like manifestations in IL-10^−/− mice, including hypertension, proteinuria, renal injury and fetal growth restriction (FIG. 17).\nFIG. 18. Furthermore, the molecular events that underlie effects of Trehalose in pre-eclamptic mice were interrogated. The placentas from Trehalose-treated mice and controls were assessed for the abundance of aggregated proteins and expression of molecules in autophagy-lysosomal pathway."}, "cis-P-tau": {"system": "cis-P-tau", "test": "cis-P-tau immunostaining in hypoxia-exposed primary trophoblast cells", "format": "cell-based, human", "details": "trehalose 50 mM, 1% O2, 3 days", "method": "(§2) Human primary trophoblast cells (ScienCell Research Laboratories) were plated on glass coverslips and cultured in trophoblast medium supplemented with 5% fetal bovine serum, 1% trophoblast growth supplement and 1% penicillin/streptomycin (ScienCell Research Laboratories) in a humidified atmosphere with 5% CO2 at 37° C. Cells were washed three times with Dulbecco's phosphate-buffered saline and cultured in serum-free trophoblast medium prior to exposure to low oxygen tension (1% O2) or normoxia (20% O2) for 3 days. Cells were fixed with 4% formaldehyde in PBS for 15 min, permeabilized and then stained with ProteoStat® dye.\nPrimary trophoblast cells were treated with vehicle or trehalose (50 mM), exposed to low oxygen tension (1% O2) or normoxia, and fixed at 3 days. After permeabilized and blocked in PBS solution containing 1% Triton-X, 3% BSA and normal donkey serum for 30 min, cells were immunostained for cis-P-tau and mounted in anti-quench mounting medium with DAPI."}, "pregnant IL10-/- mice": {"system": "pregnant IL10-/- mice", "test": "Mouse model of PE: severe PE serum in pregnant IL10-/- mice", "format": "in vivo", "details": "for preeclampsia-like features (hypertension, proteinuria, growth restriction, kidney injury): PE serum at gd10 in IL-10-/- mice, 2 g/kg i.p. at gd9, or gd11 and gd14, or gd9, gd11 and gd14, readout gd17", "method": "as §1"}, "Pin1": {"system": "Pin1", "test": "Pin1 immunostaining in nuclei of hypoxia-exposed primary trophoblast cells", "format": "cell-based, human", "details": "trehalose 50 mM, 1% O2, 3 days", "method": "as §2\n(§3) Primary trophoblast cells were treated with vehicle or trehalose (50 mM), exposed to low oxygen tension (1% O2) or normoxia, and fixed at 3 days. After permeabilized and blocked in PBS solution containing 1% Triton-X, 3% BSA and normal donkey serum for 30 min, cells were immunostained for cis-P-tau with mouse anti-Pin1 antibody and then with Alexa Fluor 488 donkey anti-mouse secondary antibody. Cells were then mounted in anti-quench mounting medium with DAPI."}, "[2]": {"system": "protein aggregates in primary trophoblast cells", "test": "ProteoStat staining of protein aggregates in hypoxia-exposed primary trophoblast cells", "format": "cell-based, human", "details": "1% O2, 3 days", "method": "Human primary trophoblast cells (ScienCell Research Laboratories) were plated on glass coverslips and cultured in trophoblast medium supplemented with 5% fetal bovine serum, 1% trophoblast growth supplement and 1% penicillin/streptomycin (ScienCell Research Laboratories) in a humidified atmosphere with 5% CO2 at 37° C. Cells were washed three times with Dulbecco's phosphate-buffered saline and cultured in serum-free trophoblast medium prior to exposure to low oxygen tension (1% O2) or normoxia (20% O2) for 3 days. Cells were fixed with 4% formaldehyde in PBS for 15 min, permeabilized and then stained with ProteoStat® dye. […] FIG. 14. The effect of Trehalose on protein aggregation was examined in primary trophoblast cells in response to hypoxia, a useful cellular model of PE. Primary trophoblast cells were cultured under normoxic and hypoxic (1% O2) culture conditions for 3 days, treated with vehicle, Trehalose, maltose, sucrose or D-glucose and then fixed for staining or lysed for Western blotting. ProteoStat, a dye with high affinity to aggregated proteins, was used to detect protein aggregates in treated and untreated cells."}, "[3]": {"system": "LAMP1/2, TFEB and cathepsin D", "test": "Expression of LAMP1/2, TFEB and cathepsin D in hypoxia-exposed primary trophoblast cells", "format": "cell-based, human", "method": "FIG. 15. To investigate the underlying mechanisms, it was evaluated whether Trehalose can enhance the activities of autophagy-lysosomal degradation pathway, the machinery responsible for clearance of protein aggregates. To this end, the signaling molecules of this machinery such as LAMP1/2, TFEB and cathepsin D were examined in primary trophoblast cells in response to hypoxia stimulation with and without Trehalose treatment."}, "TCL-1 cells": {"system": "TCL-1 cells", "test": "Autophagy-lysosomal machinery and protein aggregates in trophoblast cell line TCL-1 under hypoxia", "format": "cell-based, human"}, "[4]": {"details": "FDA; safety studies in mice, rats, and rabbits including in pregnancy; cited from earlier work"}, "pS71-Pin1": {"system": "pS71-Pin1", "test": "pS71-Pin1 immunostaining in nuclei of hypoxia-exposed primary trophoblast cells", "format": "cell-based, human", "details": "trehalose 50 mM, 1% O2, 3 days", "method": "as §2\nas §3, with “pS71-Pin1” for “cis-P-tau”, “rabbit anti-pS71-Pin1” for “mouse anti-Pin1”, “anti-rabbit” for “anti-mouse”"}, "[5]": {"system": "components of autophagy-lysosomal machinery", "test": "Western blot of autophagy markers in hypoxia-exposed primary trophoblast cells", "format": "cell-based, human", "details": "trehalose 50 mM, 1% O2, 3 days", "method": "Primary trophoblast cells were treated with vehicle or trehalose (50 mM), exposed to low oxygen tension (1% O2) or normoxia, and fixed at 3 days. Cells were harvested and lysed in RIPA lysis buffer containing protease inhibitors cocktail (Sigma). Proteins were separated by 4-12% SDS-PAGE and transferred into PVDF membrane. After blocking with 5% nonfat milk in PBS-tween (PBS-T) buffer for 30 min, the transferred membrane was incubated overnight in indicated primary antibodies, diluted in 3% or 5% BSA in PBS-T buffer, at 4° C. The membrane was washed three times, incubated for 1 h at room temperature with HRP-conjugated goat anti-rabbit/mouse IgG (Cell signaling), and then treated with enhanced chemiluminescent substrate (Thermofisher) and exposed on film."}},
  "data": [
    {"molecule": "OC[C@H]1O[C@H](O[C@H]2O[C@H](CO)[C@@H](O)[C@H](O)[C@H]2O)[C@H](O)[C@@H](O)[C@@H]1O", "note": "[Trehalose]", "values": [
      {"measurement": "expression of cathepsin D in placenta", "setting": "[1]", "result": "rescued the expression of cathepsin D"},
      {"measurement": "protein aggregates in placenta (ProteoStat signal)", "setting": "[1]; labyrinth, junctional zone and decidua", "result": "significantly decreased protein aggregates"},
      {"measurement": "hypoxia-induced upregulation of cis-P-tau", "setting": "cis-P-tau", "result": "blocked hypoxia-induced upregulation of cis-P-tau"},
      {"measurement": "preeclampsia-like features (hypertension, proteinuria, growth restriction, kidney injury)", "setting": "pregnant IL10-/- mice", "result": "significantly reversed preeclampsia-like features"},
      {"measurement": "effect in mice administered normal pregnancy sera", "setting": "pregnant IL10-/- mice; normal pregnancy serum, IL-10-/- mice, 2 g/kg i.p.", "result": "did not have obvious effect"},
      {"measurement": "hypoxia-induced downregulation of nuclear Pin1 expression", "setting": "Pin1", "result": "blocked hypoxia-induced downregulation of nuclear Pin expression"},
      {"measurement": "hypoxia-induced accumulation of protein aggregates (ProteoStat signal)", "setting": "[2]", "result": "significantly rescued hypoxia-induced accumulation of protein aggregates"},
      {"measurement": "hypoxia-induced accumulation of protein aggregates (ProteoStat signal)", "setting": "[2]; listed as trehalose", "result": "inhibits protein aggregation"},
      {"measurement": "hypoxia-induced downregulation of LAMP1/2, TFEB and cathepsin D", "setting": "[3]", "result": "significantly rescued hypoxia-induced downregulation of these molecules"},
      {"measurement": "autophagy-lysosomal machinery and aggregate clearance under hypoxia", "setting": "TCL-1 cells", "result": "restores autophagy machinery"},
      {"measurement": "safety status", "setting": "[4]", "result": "generally regarded as safe"},
      {"measurement": "hypoxia-induced upregulation of nuclear pS71-Pin1 expression", "setting": "pS71-Pin1", "result": "inhibited hypoxia-induced upregulation of nuclear pS71-Pin1 expression"},
      {"measurement": "hypoxia-induced downregulation of components of autophagy-lysosomal machinery (Western blot)", "setting": "[5]", "result": "blocked hypoxia-induced downregulation of these proteins"}
    ]},
    {"molecule": "O=C[C@H](O)[C@@H](O)[C@H](O)[C@H](O)CO", "note": "[D-glucose, reference compound]", "values": [
      {"measurement": "preeclampsia-like features (hypertension, proteinuria, growth restriction, kidney injury)", "setting": "pregnant IL10-/- mice", "result": "failed to rescue PE-like features"},
      {"measurement": "hypoxia-induced downregulation of LAMP1/2, TFEB and cathepsin D", "setting": "[3]", "result": "not easily observed"}
    ]},
    {"molecule": "OC[C@H]1O[C@H](O[C@H]2[C@H](O)[C@@H](O)C(O)O[C@@H]2CO)[C@H](O)[C@@H](O)[C@@H]1O", "note": "(mixture of isomers) [maltose, reference compound]", "values": [
      {"measurement": "preeclampsia-like features (hypertension, proteinuria, growth restriction, kidney injury)", "setting": "pregnant IL10-/- mice", "result": "failed to rescue PE-like features"},
      {"measurement": "hypoxia-induced downregulation of LAMP1/2, TFEB and cathepsin D", "setting": "[3]", "result": "not easily observed"}
    ]}
  ]
}
